# Patent publication US20230055237A1, “COMPOUNDS AND METHODS FOR THE TREATMENT OF CYSTIC FIBROSIS” (Flatley Discovery Lab, LLC, priority 2019, published 2023)
# Target: T1, CFTR (Homo sapiens, UniProt P13569, DEL508-508)
# T1 construct: Primary CF airway epithelial cells were obtained from the UNC Cystic Fibrosis Tissue Procurement and Cell Culture Core; host or cells: primary CF airway epithelial cells, differentiated at the air-liquid interface
# Experiment: Equivalent current assay in primary CF airway epithelial cells (NAUC, combination with 1st site corrector FDL169 or VX-809)
# Format: cell-based
# Settings: 37° C., 24 h; for Nauc @ 10 μM: test compound 10 μM in combination with 1st site corrector VX-809 (3 μM)
# [1] = test compound 1 μM in combination with 1st site corrector VX-809 (3 μM)
# [2] = test compound 3 μM in combination with 1st site corrector VX-809 (3 μM)
# T1 sequence (P13569 with tags, fused parts or gaps DEL508-508): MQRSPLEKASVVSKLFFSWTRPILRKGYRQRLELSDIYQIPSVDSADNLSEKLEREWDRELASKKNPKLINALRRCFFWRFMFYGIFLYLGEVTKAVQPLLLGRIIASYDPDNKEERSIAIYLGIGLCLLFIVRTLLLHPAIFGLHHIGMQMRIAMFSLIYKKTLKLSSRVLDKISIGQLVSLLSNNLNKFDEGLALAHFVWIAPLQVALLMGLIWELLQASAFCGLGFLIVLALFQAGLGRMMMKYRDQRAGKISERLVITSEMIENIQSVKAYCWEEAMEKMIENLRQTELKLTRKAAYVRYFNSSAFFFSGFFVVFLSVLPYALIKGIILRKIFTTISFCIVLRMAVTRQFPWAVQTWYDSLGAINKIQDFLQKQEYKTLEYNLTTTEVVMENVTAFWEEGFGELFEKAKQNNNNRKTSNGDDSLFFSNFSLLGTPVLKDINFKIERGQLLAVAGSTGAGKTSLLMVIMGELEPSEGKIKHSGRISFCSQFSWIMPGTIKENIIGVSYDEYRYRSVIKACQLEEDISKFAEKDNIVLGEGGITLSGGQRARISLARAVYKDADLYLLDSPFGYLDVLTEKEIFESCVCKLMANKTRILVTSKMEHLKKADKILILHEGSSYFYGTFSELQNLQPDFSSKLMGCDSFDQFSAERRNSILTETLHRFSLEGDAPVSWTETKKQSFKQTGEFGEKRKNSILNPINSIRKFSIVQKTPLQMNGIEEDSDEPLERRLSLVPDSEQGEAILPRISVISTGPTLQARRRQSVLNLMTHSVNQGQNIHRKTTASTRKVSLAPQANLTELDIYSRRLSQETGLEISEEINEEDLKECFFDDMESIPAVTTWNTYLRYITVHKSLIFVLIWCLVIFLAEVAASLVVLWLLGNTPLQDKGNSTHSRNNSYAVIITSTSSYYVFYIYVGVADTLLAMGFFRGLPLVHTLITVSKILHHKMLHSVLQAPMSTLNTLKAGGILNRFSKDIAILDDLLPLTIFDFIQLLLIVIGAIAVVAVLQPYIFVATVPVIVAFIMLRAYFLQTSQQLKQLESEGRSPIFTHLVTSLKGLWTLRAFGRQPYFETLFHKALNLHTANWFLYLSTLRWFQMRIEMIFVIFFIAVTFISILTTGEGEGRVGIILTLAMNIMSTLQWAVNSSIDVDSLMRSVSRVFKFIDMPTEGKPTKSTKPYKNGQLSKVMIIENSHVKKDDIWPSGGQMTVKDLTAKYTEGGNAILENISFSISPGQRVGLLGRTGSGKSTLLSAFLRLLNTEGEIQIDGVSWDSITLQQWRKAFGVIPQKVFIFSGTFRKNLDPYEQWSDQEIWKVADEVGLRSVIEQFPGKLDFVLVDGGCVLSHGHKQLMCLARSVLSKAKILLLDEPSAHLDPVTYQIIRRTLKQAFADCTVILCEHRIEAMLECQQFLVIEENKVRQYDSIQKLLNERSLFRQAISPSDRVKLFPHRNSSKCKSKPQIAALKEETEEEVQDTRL
Compound,Nauc @ 1 μM (test compound 1 μM in combination with 1st site corrector FDL169 (3 μM)),Nauc @ 3 μM (test compound 3 μM in combination with 1st site corrector FDL169 (3 μM)),Nauc @ 1 μM [1],Nauc @ 3 μM [2],Nauc @ 10 μM
"CC(C)(C)CN(C(=O)[C@H]1[C@@H](C(=O)O)[C@]2(C(=O)Nc3c(Cl)cc(Cl)cc32)N2CC(F)(F)C[C@@H]12)c1cc(Cl)cc(Cl)c1 [Example 111, (1′S,2′R,3S,7a′S)-5,7-dichloro-1-((3,5-dichlorophenyl)(neopentyl)carbamoyl)-6′,6′-difluoro-2-oxo-1′,2′,5′,6′,7′,7a′-hexahydrospiro[indoline-3,3′-pyrrolizine]-2′-carboxylic acid]",+ (NAUC “+” refers to an observed NAUC <140% of positive control),++ (NAUC “++” refers to an observed NAUC 170-140% of positive control),,,
CN(CC1(c2cccc(C(C)(C)C)c2)CC1)C(=O)[C@H]1[C@H]2CC(F)(F)CN2[C@]2(C(=O)Nc3c(Cl)cc(Cl)cc32)[C@H]1C(=O)O [Example 112],,,+++ (NAUC “+++” refers to an observed NAUC>170% of positive control),+++ (NAUC “+++” refers to an observed NAUC>170% of positive control),+++ (NAUC “+++” refers to an observed NAUC>170% of positive control)
O=C(Nc1ccc2ccccc2n1)[C@H]1[C@H]2CC(F)(F)CN2[C@]2(C(=O)Nc3c(Cl)cc(Cl)cc32)[C@H]1C(=O)O [Example 113],,,+ (NAUC “+” refers to an observed NAUC <140% of positive control),+ (NAUC “+” refers to an observed NAUC <140% of positive control),+ (NAUC “+” refers to an observed NAUC <140% of positive control)
CN(C(=O)[C@H]1[C@H]2CC(F)(F)CN2[C@]2(C(=O)Nc3c(Cl)cc(Cl)cc32)[C@H]1C(=O)O)c1cccc(C(F)(F)F)n1 [Example 114],,,+++ (NAUC “+++” refers to an observed NAUC>170% of positive control),++ (NAUC “++” refers to an observed NAUC 170-140% of positive control),+++ (NAUC “+++” refers to an observed NAUC>170% of positive control)
O=C(Nc1ccc2ccccc2c1)[C@H]1[C@H]2CC(F)(F)CN2[C@]2(C(=O)Nc3c(Cl)cc(Cl)cc32)[C@H]1C(=O)O [Example 115],,,+ (NAUC “+” refers to an observed NAUC <140% of positive control),+ (NAUC “+” refers to an observed NAUC <140% of positive control),+ (NAUC “+” refers to an observed NAUC <140% of positive control)
O=C(O)[C@H]1[C@@H](C(=O)N(c2cc(Cl)cc(Cl)c2)C2CC2)[C@H]2CC(F)(F)CN2[C@]12C(=O)Nc1c(Cl)cc(Cl)cc12 [Example 116],,,+++ (NAUC “+++” refers to an observed NAUC>170% of positive control),+++ (NAUC “+++” refers to an observed NAUC>170% of positive control),++ (NAUC “++” refers to an observed NAUC 170-140% of positive control)
O=C(Nc1ccc2ccccc2c1)[C@H]1[C@H]2CC(F)(F)CN2[C@]2(C(=O)Nc3c(Cl)cc(Cl)cc32)[C@H]1C(=O)O [Example 117],,,+ (NAUC “+” refers to an observed NAUC <140% of positive control),++ (NAUC “++” refers to an observed NAUC 170-140% of positive control),+ (NAUC “+” refers to an observed NAUC <140% of positive control)
Cc1nc2ccc(NC(=O)[C@H]3[C@H]4CC(F)(F)CN4[C@]4(C(=O)Nc5c(Cl)cc(Cl)cc54)[C@H]3C(=O)O)cc2s1 [Example 118],,,+ (NAUC “+” refers to an observed NAUC <140% of positive control),+ (NAUC “+” refers to an observed NAUC <140% of positive control),+ (NAUC “+” refers to an observed NAUC <140% of positive control)
O=C(Nc1cc2ccccc2cn1)[C@H]1[C@H]2CC(F)(F)CN2[C@]2(C(=O)Nc3c(Cl)cc(Cl)cc32)[C@H]1C(=O)O [Example 119],,,+ (NAUC “+” refers to an observed NAUC <140% of positive control),+ (NAUC “+” refers to an observed NAUC <140% of positive control),+ (NAUC “+” refers to an observed NAUC <140% of positive control)
O=C(Nc1ccc2ncccc2c1)[C@H]1[C@H]2CC(F)(F)CN2[C@]2(C(=O)Nc3c(Cl)cc(Cl)cc32)[C@H]1C(=O)O [Example 120],,,+ (NAUC “+” refers to an observed NAUC <140% of positive control),+ (NAUC “+” refers to an observed NAUC <140% of positive control),+ (NAUC “+” refers to an observed NAUC <140% of positive control)
O=C(Nc1ccccc1-c1ccccc1)[C@H]1[C@H]2CC(F)(F)CN2[C@]2(C(=O)Nc3c(Cl)cc(Cl)cc32)[C@H]1C(=O)O [Example 121],,,+++ (NAUC “+++” refers to an observed NAUC>170% of positive control),+++ (NAUC “+++” refers to an observed NAUC>170% of positive control),++ (NAUC “++” refers to an observed NAUC 170-140% of positive control)
O=C(Nc1nccc2ccccc12)[C@H]1[C@H]2CC(F)(F)CN2[C@]2(C(=O)Nc3c(Cl)cc(Cl)cc32)[C@H]1C(=O)O [Example 122],,,+ (NAUC “+” refers to an observed NAUC <140% of positive control),+ (NAUC “+” refers to an observed NAUC <140% of positive control),
Cn1nc(NC(=O)[C@H]2[C@H]3CC(F)(F)CN3[C@]3(C(=O)Nc4c(Cl)cc(Cl)cc43)[C@H]2C(=O)O)c2cccnc21 [Example 123],,,+ (NAUC “+” refers to an observed NAUC <140% of positive control),+ (NAUC “+” refers to an observed NAUC <140% of positive control),
O=C(Nc1cccc(-c2ccccc2)c1)[C@H]1[C@H]2CC(F)(F)CN2[C@]2(C(=O)Nc3c(Cl)cc(Cl)cc32)[C@H]1C(=O)O [Example 124],,,+++ (NAUC “+++” refers to an observed NAUC>170% of positive control),+++ (NAUC “+++” refers to an observed NAUC>170% of positive control),
O=C(Nc1cccc2nccnc12)[C@H]1[C@H]2CC(F)(F)CN2[C@]2(C(=O)Nc3c(Cl)cc(Cl)cc32)[C@H]1C(=O)O [Example 126],,,++ (NAUC “++” refers to an observed NAUC 170-140% of positive control),++ (NAUC “++” refers to an observed NAUC 170-140% of positive control),
O=C(Nc1cccc2cccnc12)[C@H]1[C@H]2CC(F)(F)CN2[C@]2(C(=O)Nc3c(Cl)cc(Cl)cc32)[C@H]1C(=O)O [Example 127],,,+ (NAUC “+” refers to an observed NAUC <140% of positive control),+ (NAUC “+” refers to an observed NAUC <140% of positive control),
O=C(Nc1ccc2scnc2c1)[C@H]1[C@H]2CC(F)(F)CN2[C@]2(C(=O)Nc3c(Cl)cc(Cl)cc32)[C@H]1C(=O)O [Example 128],,,+ (NAUC “+” refers to an observed NAUC <140% of positive control),+ (NAUC “+” refers to an observed NAUC <140% of positive control),
O=C(Nc1cccc2c1OCCO2)[C@H]1[C@H]2CC(F)(F)CN2[C@]2(C(=O)Nc3c(Cl)cc(Cl)cc32)[C@H]1C(=O)O [Example 129],,,+ (NAUC “+” refers to an observed NAUC <140% of positive control),+ (NAUC “+” refers to an observed NAUC <140% of positive control),
O=C(Nc1n[nH]c2ccc(F)cc12)[C@H]1[C@H]2CC(F)(F)CN2[C@]2(C(=O)Nc3c(Cl)cc(Cl)cc32)[C@H]1C(=O)O [Example 130],,,+ (NAUC “+” refers to an observed NAUC <140% of positive control),+ (NAUC “+” refers to an observed NAUC <140% of positive control),
O=C(Nc1cccc2c1CCCC2)[C@H]1[C@H]2CC(F)(F)CN2[C@]2(C(=O)Nc3c(Cl)cc(Cl)cc32)[C@H]1C(=O)O [Example 131],,,+++ (NAUC “+++” refers to an observed NAUC>170% of positive control),+++ (NAUC “+++” refers to an observed NAUC>170% of positive control),
COCCN(C(=O)[C@H]1[C@H]2CC(F)(F)CN2[C@]2(C(=O)Nc3c(Cl)cc(Cl)cc32)[C@H]1C(=O)O)c1cc(Cl)cc(Cl)c1 [Example 132],,,+++ (NAUC “+++” refers to an observed NAUC>170% of positive control),+++ (NAUC “+++” refers to an observed NAUC>170% of positive control),+++ (NAUC “+++” refers to an observed NAUC>170% of positive control)
COc1cc(C(F)(F)F)cc(N(C)C(=O)[C@H]2[C@H]3CC(F)(F)CN3[C@]3(C(=O)Nc4c(Cl)cc(Cl)cc43)[C@H]2C(=O)O)n1 [Example 133],,,+++ (NAUC “+++” refers to an observed NAUC>170% of positive control),+++ (NAUC “+++” refers to an observed NAUC>170% of positive control),+++ (NAUC “+++” refers to an observed NAUC>170% of positive control)
O=C(Nc1cnc(-c2ccccc2)cn1)[C@H]1[C@H]2CC(F)(F)CN2[C@]2(C(=O)Nc3c(Cl)cc(Cl)cc32)[C@H]1C(=O)O [Example 134],,,+ (NAUC “+” refers to an observed NAUC <140% of positive control),+ (NAUC “+” refers to an observed NAUC <140% of positive control),
O=C(Nc1nccc2cccnc12)[C@H]1[C@H]2CC(F)(F)CN2[C@]2(C(=O)Nc3c(Cl)cc(Cl)cc32)[C@H]1C(=O)O [Example 135],,,+ (NAUC “+” refers to an observed NAUC <140% of positive control),+ (NAUC “+” refers to an observed NAUC <140% of positive control),+ (NAUC “+” refers to an observed NAUC <140% of positive control)
